Test results published in PubChem BioAssay AID1919000 (Molecular Pharmacology Branch, DTP, NCI, 2023).
pIC50: −log10 of the molar value.

Tested on: 653999-131-R-J2-PDC complex spheroids, growth % test/control
Experiment: Anticancer human tumor 653999-131-R-J2-PDC patient-derived lung adenocarcinoma cell line growth inhibition [AhR]
Conditions: for pIC50: curve of first compound; for viability, T/C: stronger effect = lower value
Procedure, shortened: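 Spheroids combined tumor cells with HUVEC endothelial cells and human MSCs as stroma. AhR antagonists were paired with standard or investigational drugs, each dosed in half-log steps down from near clinical Cmax, or from 10 microM where Cmax was unknown.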

[1] = second compound 0.1 µM, first compound 0.00949 µM
[2] = second compound 0.1 µM, first compound 0.03 µM
[3] = second compound 0.1 µM, first compound 0.0949 µM
[4] = second compound 0.1 µM, first compound 0.3 µM
[5] = second compound 0.316 µM, first compound 0.00949 µM
[6] = second compound 0.316 µM, first compound 0.03 µM
[7] = second compound 0.316 µM, first compound 0.0949 µM
[8] = second compound 0.316 µM, first compound 0.3 µM
[9] = second compound 1 µM, first compound 0.00949 µM
[10] = second compound 1 µM, first compound 0.03 µM
[11] = second compound 1 µM, first compound 0.0949 µM
[12] = second compound 1 µM, first compound 0.3 µM
[13] = second compound 3.16 µM, first compound 0.00949 µM
[14] = second compound 3.16 µM, first compound 0.03 µM
[15] = second compound 3.16 µM, first compound 0.0949 µM
[16] = second compound 3.16 µM, first compound 0.3 µM
[17] = second compound 10 µM, first compound 0.00949 µM
[18] = second compound 10 µM, first compound 0.03 µM
[19] = second compound 10 µM, first compound 0.0949 µM
[20] = second compound 10 µM, first compound 0.3 µM
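Also: spheroids exposed to agents for seven days.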
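For viability, T/C in this document: 100% = DMSO vehicle control viability.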

Compound	pIC50 (second compound 0.1 µM)	pIC50 (second compound 0.316 µM)	pIC50 (second compound 1 µM)	pIC50 (second compound 3.16 µM)	pIC50 (second compound 10 µM)	viability, T/C [1]	viability, T/C [2]	viability, T/C [3]	viability, T/C [4]	viability, T/C [5]	viability, T/C [6]	viability, T/C [7]	viability, T/C [8]	viability, T/C [9]	viability, T/C [10]	viability, T/C [11]	viability, T/C [12]	viability, T/C [13]	viability, T/C [14]	viability, T/C [15]	other results
Nc1ncn(C2CC(O)C(CO)S2)c(=O)n1 (stereo not given) + CC(CO)NC(=O)c1cc(-c2ccc(Cl)cc2)nn(-c2cnn(C)c2)c1=O	< 6.52	< 6.52	< 6.52	< 6.52	< 6.52	111%	103%	97.3%	84.8%	134%	100%	104%	88.1%	110%	103%	110%	84%	104%	121%	101%	viability, T/C (second compound 0.1 µM, first compound 0.000949 µM): 101%; viability, T/C (second compound 0.1 µM, first compound 0.003 µM): 117%; viability, T/C (second compound 0.316 µM, first compound 0.000949 µM): 106%; viability, T/C (second compound 0.316 µM, first compound 0.003 µM): 121%; viability, T/C (second compound 1 µM, first compound 0.000949 µM): 119%; viability, T/C (second compound 1 µM, first compound 0.003 µM): 115%; viability, T/C (second compound 3.16 µM, first compound 0.000949 µM): 121%; viability, T/C (second compound 3.16 µM, first compound 0.003 µM): 101%; viability, T/C [16]: 96.4%; viability, T/C (second compound 10 µM, first compound 0.000949 µM): 117%; viability, T/C (second compound 10 µM, first compound 0.003 µM): 120%; viability, T/C [17]: 127%; viability, T/C [18]: 127%; viability, T/C [19]: 116%; viability, T/C [20]: 103%
O=C(C=Cn1cnc(-c2cc(C(F)(F)F)cc(C(F)(F)F)c2)n1)NNc1cnccn1 + CC(CO)NC(=O)c1cc(-c2ccc(Cl)cc2)nn(-c2cnn(C)c2)c1=O	6.12	6.11	6.09	5.91	< 5.52	103%	110%	76.1%	59.7%	109%	98%	71.3%	59.7%	95.8%	103%	86.1%	61.1%	114%	105%	96.1%	viability, T/C (second compound 0.1 µM, first compound 0.949 µM): 48.9%; viability, T/C (second compound 0.1 µM, first compound 3 µM): 45.1%; viability, T/C (second compound 0.316 µM, first compound 0.949 µM): 51.1%; viability, T/C (second compound 0.316 µM, first compound 3 µM): 40%; viability, T/C (second compound 1 µM, first compound 0.949 µM): 51.7%; viability, T/C (second compound 1 µM, first compound 3 µM): 42.8%; viability, T/C [16]: 64.2%; viability, T/C (second compound 3.16 µM, first compound 0.949 µM): 55.5%; viability, T/C (second compound 3.16 µM, first compound 3 µM): 43.6%; viability, T/C [17]: 111%; viability, T/C [18]: 101%; viability, T/C [19]: 86.5%; viability, T/C [20]: 65.6%; viability, T/C (second compound 10 µM, first compound 0.949 µM): 54%; viability, T/C (second compound 10 µM, first compound 3 µM): 54.4%
